Source: patent US20080200531A1, “CDKI pathway inhibitors as inhibitors of tumor cell growth” (priority 2006, published 2008)

How the values were obtained:
[1] = tested on: isogenic human fibroblast cell lines (untransformed, partially transformed, fully transformed); test: Dose-dependent growth inhibition of three isogenic human fibroblast cell lines with increasing neoplastic transformation; assay type: cell-based; details: 3-day assay, Hoechst 33342
Description: To determine if tumor-specific growth inhibitory activity of SNX9 class compounds could be due to the inhibition of a specific CDK, we took advantage of the availability of selective inhibitors for some of the CDK proteins. Among these enzymes, CDK1, CDK2 and CDK4/CDK6 (the latter two CDKs are closely related to each other and interact with the same class of cyclins), have been used as targets for developing specific inhibitors, with potential anticancer activity. In contrast, CDK3 has not been used as a target for developing selective inhibitors. We have obtained commercially available selective inhibitors of CDK1 (CGP74514A) (Calbiochem Cat. No. 217696), CDK2 (CVT-313) (Calbiochem Cat. No. 238803), and CDK4 (NSC 625987) (Calbiochem Cat. No. 219477), and tested them, along with a broad-specificity CDK inhibitor flavopiridol, and with SNX14, SNX9 and SNX9-1, for growth inhibition of normal and transformed fibroblasts.
This analysis was done using a set of three isogenic human fibroblast cell lines with increasing degrees of neoplastic transformation (immortal but untransformed, partially transformed, and fully transformed).

[2] = tested on: NFκB p50 and p65 subunits; test: TransAM NFκB p65 and p50 Chemi Transcription Factor Assay (oligonucleotide binding); assay type: cell-based; details: TNFα-induced or basal
Description: We also tested if these compounds could act as the inhibitors of NFκB, by measuring cellular levels of p50 or p65 subunits binding oligonucleotides containing NFκB consensus binding site, using ACTIVE MOTIF TransAM™ NFκB p65 Chemi and NFκB p50 Chemi Transcription Factor Assay Kits.

[3] = tested on: p21-induced CMV-GFP expression (CDKI pathway); test: CMV-GFP reporter assay for p21-induced transcription (HTS) in HT1080 p21-9 derived reporter cell line; assay type: cell-based, human; details: libraries screened at 20 μM
Description: As described in a co-pending patent application PCT/US06/0 1046, we have developed a high-throughput screening (HTS) procedure for compounds inhibiting the CDKI pathway. This procedure utilizes a highly sensitive reporter cell line that was generated by infecting HT1080 p21-9 cells, a derivative of HT1080 fibrosarcoma cells that express p21 from a promoter induced by a physiologically neutral β-galactoside IPTG (isopropyl-β-thio-galactoside) with a lentiviral vector that expresses Green Fluorescent Protein (GFP) from the CDKI-inducible cytomegalovirus (CMV) promoter, followed by subcloning of GFP positive cells and monitoring the induction of GFP expression by IPTG. A cell line showing approximately 10-fold increase in GFP upon the addition of IPTG was used for HTS in a 96-well format.
This reporter line was used to screen two diversified small-molecule libraries developed by ChemBridge Corp., Microformat 04 and DiverSet, each comprising 50,000 compounds. These diversified libraries were rationally chosen by ChemBridge by quantifying pharmacophores in a collection of >500,000 drug-like molecules, using a version of Chem-X software to maximize the pharmacophore diversity. The Microformat 04 collection was designed to complement the chemical space covered by the older DiverSet library. ChemBridge libraries have been successfully used by numerous industrial and academic researchers, in a variety of cell-based and cell-free assays. The ChemBridge libraries were screened at 20 μM concentration, a conventional concentration for cell-based screening of these libraries. 62 of 100,000 ChemBridge compounds were identified by HTS and verified as inhibiting the induction of CMV-GFP expression in response to p21. This low hit rate (0.06%) indicates a high selectivity of our assay.
In this experiment, HT1080 p21-9 cells that express firefly luciferase from a CDKI-responsive promoter of cellular NK4 gene were cultured with IPTG for two days, which is sufficient for near-maximal induction of NK4 (Poole et al., supra).

[4] = tested on: HT1080-derived reporter cell line; test: Growth inhibition and cell death in HT1080-derived reporter cell line; assay type: cell-based, human; details: cell death detected microscopically by cell detachment
Description: The combination of p21 and SNX9-class compounds leads to both G1 and G2/M arrest, at the levels expected for the combined effects of p21 and SNX9 (FIG. 6).

[5] = tested on: HMEC primary cultures, MCF-7 and MDA231; test: 3-day growth inhibition assay (Hoechst 33342), normal mammary epithelial cells vs breast carcinoma lines; details: 3-day assay; HMEC vs MCF-7 and MDA231
Description: (§1) The assays were carried out in 96-well plates, in triplicates; the plated cell numbers for each cell line were determined in preliminary experiments to assure exponential growth over the 3-day period of the assay. The cell numbers were measured by staining DNA of attached cells with Hoechst 33342, and the results for each dose were expressed as the decrease in cell number relative to untreated cells. For some of the tumor/normal cell line combinations, the assays were repeated using CellTiter-Glo viability assay (Promega), with the same results.

[6] = tested on: WI-38 and BJ-EN fibroblasts vs HT1080, HCT116, C33-A, Calu-6; test: 3-day growth inhibition assay (Hoechst 33342), normal fibroblasts vs tumor cell lines; details: 3-day assay, WI-38, BJ-EN vs HT1080, HCT116, C33-A
Description: as §1

SMILES: CN1CC[C@H](c2c(O)cc(O)c3c(=O)cc(-c4ccccc4Cl)oc23)[C@H](O)C1 [flavopiridol]
- selectivity of growth inhibition for transformed cell lines relative to immortal but untransformed fibroblasts [1]: no transformed cell selectivity whatsoever

SMILES: COc1ccc(CNc2nc(N(CCO)CCO)nc3c2ncn3C(C)C)cc1 [selective inhibitor of CDK2, CVT-313]
- selectivity of growth inhibition for transformed cell lines relative to immortal but untransformed fibroblasts [1]: no transformed cell selectivity whatsoever

SMILES: Cc1ccc(S(=O)(=O)N[C@@H](Cc2ccccc2)C(=O)CCl)cc1 [TPCK, reference compound]
- NFκB activity (p50 or p65 binding to NFκB consensus oligonucleotide) [2]: completely blocks NFκB activity

SMILES: NCCc1c[nH]c2ccc(Cl)cc12 [Compound 3]
- anti-CDKI pathway activity in the reporter assay (induction of CMV-GFP expression in response to p21) [3]: showed anti-CDKI pathway activity in the reporter assay
- growth inhibition of the HT1080-derived reporter cell line [4]: associated with the induction of both cell death (as detected microscopically by cell detachment) and cell cycle arrest

SMILES: CC(=O)O[C@H]1C(=O)[C@@]2(C)[C@H]([C@H](OC(=O)c3ccccc3)[C@]3(O)C[C@H](OC(=O)[C@H](O)[C@@H](NC(=O)c4ccccc4)c4ccccc4)C(C)=C1C3(C)C)[C@]1(OC(C)=O)CO[C@@H]1C[C@@H]2O [taxol, paclitaxel]
- tumor selectivity of growth inhibition, normal vs transformed mammary cells [5]: clear tumor selectivity
- tumor selectivity of growth inhibition, tumor cells vs normal fibroblasts [6]: inhibited all the tumor cells to a greater extent than normal fibroblasts

SMILES: CC[C@@]1(O)C(=O)OCc2c1cc1n(c2=O)Cc2cc3ccccc3nc2-1 [camptothecin]
- tumor selectivity of growth inhibition, normal vs transformed mammary cells [5]: no discrimination between normal and transformed mammary cells
- tumor selectivity of growth inhibition, tumor cells vs normal fibroblasts [6]: showed no selectivity

SMILES: COc1ccc(OC)c2c(=S)c3ccccc3[nH]c12 [selective inhibitor of CDK4, NSC 625987]
- selectivity of growth inhibition for transformed cell lines relative to immortal but untransformed fibroblasts [1]: no transformed cell selectivity whatsoever

SMILES: CCn1cnc2c(Nc3cccc(Cl)c3)nc(N[C@@H]3CCCC[C@@H]3N)nc21 [selective CDK1 inhibitor, CGP74514A]
- selectivity of growth inhibition for transformed cell lines relative to immortal but untransformed fibroblasts [1]: Much lower selectivity for transformed cells

SMILES: COc1cccc2c1C(=O)c1c(O)c3c(c(O)c1C2=O)C[C@@](O)(C(=O)CO)C[C@@H]3O[C@H]1C[C@H](N)[C@H](O)[C@H](C)O1 [doxorubicin]
- tumor selectivity of growth inhibition, normal vs transformed mammary cells [5]: no discrimination between normal and transformed mammary cells
- tumor selectivity of growth inhibition, tumor cells vs normal fibroblasts [6]: showed no selectivity

SMILES: COc1cc(Cl)c2[nH]cc(CCN)c2c1 [Compound 4]
- anti-CDKI pathway activity in the reporter assay (induction of CMV-GFP expression in response to p21) [3]: showed anti-CDKI pathway activity in the reporter assay
- growth inhibition of the HT1080-derived reporter cell line [4]: associated with the induction of both cell death (as detected microscopically by cell detachment) and cell cycle arrest
